Laboratory results as given in ChEMBL document CHEMBL1145732, “Non-imidazole heterocyclic histamine H3 receptor antagonists” (Bioorg Med Chem Lett, 2003).

Experiments:
[1] = target: Histamine H3 receptor (Homo sapiens, UniProt Q9Y5N1); experiment: Binding affinity towards human Histamine H3 receptor using [3H]N-methyl-histamine as radioligand
[2] = Half-life was determined; type: ADME; details: human
[3] = organism: Rattus norvegicus; experiment: Compound was evaluated in a functional assay for determining rat pA2; details: read-out: pA2 (converted)
[4] = tested on: SK-N-MC; experiment: Compound was evaluated in a functional assay against […] cells stably transfected with the human H3 receptor; type: cell-based; details: read-out: pA2 (converted)
[5] = tested on: Caco-2; experiment: Permeability was evaluated using Caco-2 cells; type: functional, cell-based; details: Homo sapiens

Histamine H3 receptor, sequence (Q9Y5N1 whole entry): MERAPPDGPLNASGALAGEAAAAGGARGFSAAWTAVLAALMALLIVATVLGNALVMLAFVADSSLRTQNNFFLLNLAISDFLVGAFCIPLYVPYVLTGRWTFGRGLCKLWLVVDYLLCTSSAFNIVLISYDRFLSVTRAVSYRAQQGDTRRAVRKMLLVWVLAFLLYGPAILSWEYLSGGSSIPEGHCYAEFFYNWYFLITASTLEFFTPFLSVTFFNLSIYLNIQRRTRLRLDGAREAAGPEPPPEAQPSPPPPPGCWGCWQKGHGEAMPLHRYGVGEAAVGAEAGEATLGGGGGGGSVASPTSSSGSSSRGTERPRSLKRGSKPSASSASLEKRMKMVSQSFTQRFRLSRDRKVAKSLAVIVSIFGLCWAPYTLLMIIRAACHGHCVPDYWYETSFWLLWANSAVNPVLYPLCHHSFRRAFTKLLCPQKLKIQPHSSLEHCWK

Cc1cc(OCCCN2CCCCC2)ccc1-c1cc2ccccn2c1
Ki [1]: 0.152 µM

Cc1c(-c2ccc(OCCCN3CCCCC3)cc2)cc2ccccn12
Ki [1]: 0.002 µM | half-life [2]: 54 min

c1ccn2nc(-c3ccc(OCCCN4CCCCC4)cc3)cc2c1
Ki [1]: 0.011 µM

c1ccc2[nH]c(-c3ccc(OCCCN4CCCCC4)cc3)cc2c1
Ki [1]: 0.047 µM

Cc1cc(OCCCN2CCCCC2)ccc1-c1cn2ccccc2c1C
Ki [1]: 0.011 µM

Cc1ccc2cc(-c3ccc(OCCCN4CCCCC4)cc3)cn2c1
Ki [1]: 0.028 µM

Cc1cccc2cc(-c3ccc(OCCCN4CCCCC4)cc3)cn12
Ki [1]: 0.046 µM

CCc1c(-c2ccc(OCCCN3CCCCC3)cc2)cn2ccccc12
Ki [1]: 0.019 µM

c1ccc(-c2c(-c3ccc(OCCCN4CCCCC4)cc3)cn3ccccc23)cc1
Ki [1]: 0.04 µM

c1cc(OCCCN2CCCCC2)cc(-c2cc3ccccn3c2)c1
Ki [1]: 0.308 µM

Cc1c(-c2ccc(OCCCN3CCCCC3)cc2)cn2ccccc12
Ki [1]: 0.016 µM

Cc1cccn2cc(-c3ccc(OCCCN4CCCCC4)cc3)cc12
Ki [1]: 0.04 µM

c1ccc(-c2cc3ccccn3c2)c(OCCCN2CCCCC2)c1
Ki [1]: 0.236 µM

CS(=O)(=O)n1c(-c2ccc(OCCCN3CCCCC3)cc2)cc2ccccc21
Ki [1]: 0.016 µM

Cc1ccn2cc(-c3ccc(OCCCN4CCCCC4)cc3)cc2c1
Ki [1]: 0.04 µM

c1ccn2cc(-c3ccc(OCCCN4CCCCC4)cc3)cc2c1
Ki [1]: 0.013 µM | Kb [3]: 0.0195 µM | Kb [4]: 0.00316 µM | Papp [5]: 1.4 nm/s | half-life [2]: 10 min

c1ccc(CCc2c(-c3ccc(OCCCN4CCCCC4)cc3)cn3ccccc23)cc1
Ki [1]: 0.037 µM

CCc1c(-c2ccc(OCCCN3CCCCC3)cc2)cc2ccccn12
Ki [1]: 0.005 µM
